One data set relates to patients. The settings on record: cited from earlier work.
A further data set deals with tumor promotion. As to conditions: cited from earlier work.
Data set [1] has as its target T1, PKCα isozyme (Homo sapiens, UniProt P17252).
T1 construct: Fibroblasts were washed twice with ice-cold PBS, scraped in PBS, and collected by low-speed centrifugation; endogenous in cells; host or cells: cultured skin fibroblasts from Coriell Cell Repositories (AG07141, AG06241, AG06848)
As to conditions: cited from earlier work.

Another data set has as its system rats. Nature of the data set: Morris Water Maze. It counts as in vivo, rat. As to conditions: intraventricular injection. An excerpt:
(See, for example, Hollister, L. E., 1990, Pharmacopsychiat., 23, (Suppl II) 33-36). The available animal models of memory loss and impaired learning involve measuring the ability of animals to remember a discrete event. These tests include the Morris Water Maze and the passive avoidance procedure. In the Morris Water Maze, animals are allowed to swim in a tank divided into four quadrants, only one of which has a safety platform beneath the water. The platform is removed and the animals are tested for how long they search the correct quadrant verse the incorrect quadrants. In the passive avoidance procedure the animal remembers the distinctive environment in which a mild electric shock is delivered and avoids it on a second occasion. A variant of the passive avoidance procedure makes use of a rodent's preference for dark enclosed environments over light open ones. Further discussion can be found in Crawley, J. N., 1981, Pharmacol. Biochem. Behav., 15, 695-699; Costall, B. et al, 1987, Neuropharmacol., 26, 195-200; Costall, B. et al., 1989, Pharmacol. Biochem. Behav., 32, 777-785; Barnes, J. M. et al., 1989, Br. J. Pharmacol., 98 (Suppl) 693P; Barnes, J. M. et al. 1990, Pharmacol. Biochem. Behav., 35, 955-962.
In the present example, rats were injected intraventricularly with bryostatin-1 and trained for 4 days (following standard protocols). Retention was assessed on the 5th day. […] Acquisition of memory was measured as time spent in the relevant quadrant (5th day). […] (See, FIG. 4). Bryostatin is capable of being used at concentrations to improve cognition that are 300 to 300,000 times lower than the concentration used to treat tumors.

Data set [2] has as its target T1, PKCα isozyme. Nature of the data set: PKC translocation to the cell membrane (immunoblot of cytosolic and membranous fractions of fibroblasts). In kind it is cell-based. On the procedure:
(§1) Cultured skin fibroblasts were obtained from the Coriell Cell Repositories and grown using the general guidelines established for their culture with slight modifications (Cristofalo & Carptentier, 1988; Hirashima et al., 1996). The culture medium in which cells were grown was Dulbecco's modified Eagle's medium (GIBCO) supplemented with 10% calf serum (Biofluids, Inc.). Fibroblasts from control cell lines (AC), cases AG07141 and AG06241, and a familial AD (FAD) case (AG06848) were utilized.
Immunoblot experiments were conducted using well-established procedures (Dunbar, 1994). Cells were grown to confluency (˜90%) in 6 cm Petri dishes. […] Fibroblasts were washed twice with ice-cold PBS, scraped in PBS, and collected by low-speed centrifugation. The pellets were re-suspended in the following homogenization buffer: 20 mM Tris-HCl, pH 7.5, 2 mM EDTA, 2 mM EGTA, 5 mM DTT, 0.32 M sucrose, and protease inhibitor cocktail (Sigma). Hemogenates were obtained by sonication, and centrifuged at […] for 20 minutes, and the supernatants were used as the cytosolic fraction. The pellets were homogenized in the same buffer containing 1.0% Triton X-100, incubated in ice for 45 minutes, and centrifuged at ˜12,000 g for 20 minutes. The supernatant from this batch was used as the membranous fraction. After protein determination, 20 μg of protein were diluted in 2× electrophoresis sample buffer (Novex), boiled for 5 minutes, run on 10% acrylamide gel, and transferred electrophoretically to a PVDF membrane. The membrane was saturated with 5% milk blocker by incubating it at room temperature for an hour. The primary antibody for PKC isoform (Transduction Laboratories) was diluted (1:1000) in blocking solution and incubated with the membrane overnight at 4° C. After incubation with the secondary antibody, alkaline phosphatase anti-mouse IgG (Vector Laboratories), the membrane was developed using a chemoluminescent substrate (Vector Laboratories) per the manufacturer's instructions. The band intensities were quantified by densitometry using a BioRad GS-800 calibrated scanning densitometer and Multianalyst software (BioRad).

The next data set has as its system sAPPα secretion. Nature of the data set: sAPPα secretion in cultured human skin fibroblasts (immunoblot, antibody 6E10). In kind it is cell-based. On the procedure: as §1
Data set [3] has as its system diacylglycerol-protein kinase C. As to conditions: aorta of diabetic rats and cultured rat smooth muscle cells exposed to elevated glucose (Kunisaki et al. 1994); cited from earlier work.
Data set [4] has as its system patients suffering from moderately advanced Alzheimer's Disease. The settings on record: 2000 IU/day (Burke et al. 1999); cited from earlier work.

These results are taken from patent publication US9066923B2, “Methods for Alzheimer's disease treatment and cognitive enhancement” (Blanchette Rockefeller Neurosciences Institute, priority 2002, dated 2015).

`CCC/C=C/C=C/C(=O)O[C@H]1/C(=C/C(=O)OC)C[C@H]2C[C@H]([C@@H](C)O)OC(=O)C[C@H](O)C[C@@H]3C[C@H](OC(C)=O)C(C)(C)[C@](O)(C[C@@H]4C/C(=C/C(=O)OC)C[C@H](/C=C/C(C)(C)[C@]1(O)O2)O4)O3` [bryostatin-1]: the tolerability result with patients (20 μg/m^2 once per week for 3 weeks (Weitman et al. 1999)) is “well tolerated and were not associated with myalgia or other side effects”. Further, in the data set with patients (1 hour i.v. infusion once every 2 weeks for 6 weeks (Prendville et al. 1993)), the maximum-tolerated dose is recorded as 50 μg/m^2. Also, the maximum tolerated dose with patients (once per week for 8 weeks (Jayson et al. 1995)) is recorded as 25 μg/m^2. For the same compound, the tumor promotion activity result with tumor promotion is given as “devoid of tumor promotion activity”. At PKCα isozyme [1], the “shape of the dose response curve as PKC activator” value is “biphasic”. Moreover, the “memory or retention: time spent in the relevant quadrant” value with rats (5th day, versus sham injection) is recorded as “significantly enhanced”. Further, in the data set on rats (FIG. 4), the “time to improved cognition compared to control rats” value is ≤ 2 days. Moreover, in the data set on rats (trained for 4 days, versus sham injection), the “learning: escape latency from trial to trial” value is recorded as “significantly lower”. Besides, the “activation of PKC (immunoblot, FIG. 7)” value at PKCα isozyme [2] (0.1 nM bryostatin-1, 30 minutes after delivery) is “easily detectable”. The “response demonstrating the activation of PKC (FIG. 7)” value on PKCα isozyme [2] (AD cells, FIG. 7) is on record as “powerful response”. For the same compound, the “time of maximal PKC translocation to the cell membrane (PKC activation)” value on PKCα isozyme [2] (bryostatin) is listed as 30 min. Also, the “PKC translocation after the maximum, compared with basal level” value on PKCα isozyme [2] (partial decline after 30 min, followed up to six hours) is “remains higher than basal translocation levels up to six hours”. Moreover, the sAPP secretion result in the data set on sAPPα secretion (0.1 nM bryostatin-1, compared to vehicle alone and benzolactam) is “dramatic increase of sAPP secretion”; in the data set on sAPPα secretion (bryostatin at 0.01 nM) it was “still proved effective to increase sAPP secretion”. Moreover, the “sAPPα secretion, efficacy compared with controls and Benzolactam (FIG. 1)” value with sAPPα secretion (FIG. 1) was “greater efficacy at lower concentrations than controls and Benzolactam”.

On to vitamin E, for which the “diacylglycerol-protein kinase C activation” value in data set [3] is on record as “normalize diacylglycerol-protein kinase C activation”. Moreover, in data set [4], the cognitive abilities entry is “did not enhance cognitive abilities”; the mortality and morbidity result is “reduced mortality and morbidity”.
